Results from the supplement of paper PMC3974653.
Counter-ions that a name gives are not always drawn.

Test system: MTT (mouse pheochromocytoma)
Test: IC50 of cell viability (ATP content)
Conditions: (24 or 48 h)
Outline: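 Library compounds were tested at 8 final concentrations (0.5 nM to 46 µM) on MTT mouse pheochromocytoma cells for 24 or 48 hrs, with readout by CellTiter-Glo ATP luminescence. Signals were normalised with positive-control wells at 100% and DMSO wells at 0%. IC50 values were obtained by a four-parameter logistic fit.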

SMILES	IC50 of cell viability [µM]
C[N+]1(CCC(C(N)=O)(c2ccccc2)c2ccccc2)CCCCC1 [FENPIVERINII BROMIDUM]	> 46
Cl.O=C1NCC2(CCN(CCc3ccccc3)CC2)O1 [FENSPIRIDE HYDROCHLORIDE]	> 46
Cc1ccc(/C=N/n2c(-c3ccccc3)csc2=S)cc1 [FEZATIONE]	> 46
NC(=O)C1CC2(NC(=O)NC2=O)c2cc(F)ccc2O1 (stereo not drawn) [FIDARESTAT]	> 46
Cl.O=C(COc1ccc(Cl)cc1)N1CCN(Cc2ccc3c(c2)OCO3)CC1 [FIPEXIDE HYDROCHLORIDE]	> 46
O=C(NCC1CCCCN1)c1cc(OCC(F)(F)F)ccc1OCC(F)(F)F (stereo not drawn) [FLECAINIDE]	> 46
CN1CCN(c2c(F)cc3c(=O)c(C(=O)O)cn(CCF)c3c2F)CC1 [FLEROXACIN]	> 46
CCC(=O)c1c(O)cc(O)cc1O [FLOPROPIONE]	> 46
COc1ccccc1N1CCN(CCCC(=O)c2ccc(F)cc2)CC1 [FLUANISONUM]	> 46
Cc1onc(-c2c(F)cccc2Cl)c1C(=O)NC1C(=O)N2C1SC(C)(C)C2C(=O)[O-].O.[Na+] (stereo not drawn) [FLUCLOXACILLIN MAGNESIUM]	> 46
OC(Cn1cncn1)(Cn1cncn1)c1ccc(F)cc1F [FLUCONAZOLE]	> 46
CCOC(=O)c1ncn2c1CN(C)C(=O)c1cc(F)ccc1-2 [FLUMAZENIL]	> 46
CC1CCC2=C3N1\C=C(C(O)=O)/C(=O)C3=CC(=C2)F (stereo not drawn) [FLUMEQUINE]	> 46
Fc1ccc(C(c2ccc(F)cc2)N2CCN(C/C=C/c3ccccc3)CC2)cc1 [FLUNARIZINE]	> 46
CC12C=CC(=O)C=C1[C@@H](F)CC1C2C(O)CC2(C)C1CC[C@]2(O)C(=O)CO (stereo partly drawn) [FLUPREDNISOLONE]	> 46
FC(F)(F)COCC(F)(F)F [FLUROTYLUM]	> 46
c1ccc(OCc2ccc(CCCN3CCOCC3)cc2)cc1 [FOMOCAINUM]	> 46
C[C@]12CCC(=O)C(=O)C1CC[C@@H]1[C@@H]2CC[C@]2(C)C(=O)CC[C@@H]12 (stereo partly drawn) [FORMESTANUM]	> 46
CC(C)CN(C[C@@H](OP(=O)([O-])[O-])[C@H](Cc1ccccc1)NC(=O)O[C@@H]1CCOC1)[S+](=O)([O-])c1ccc(N)cc1 [FOSAMPRENAVIR CALCIUM]	> 46
O=C([O-])P(=O)([O-])[O-].[Na+].[Na+].[Na+] [FOSCARNET SODIUM]	> 46
CC1OC1P(=O)([O-])[O-].[Ca+2] (stereo not drawn) [FOSFOMYCIN]	> 46
O=C(O)c1ccccc1OP(=O)(O)O [FOSFOSAL]	> 46
O=P(O)(O)OC[C@H]1O[C@](O)(COP(=O)(O)O)[C@@H](O)[C@@H]1O [FOSFRUCTOSUM]	> 46
CCC(=O)O[C@@H](OP(=O)(CCCCc1ccccc1)CC(=O)N1C[C@H](C2CCCCC2)C[C@H]1C(=O)[O-])C(C)C (stereo partly drawn) [FOSINOPRIL SODIUM]	> 46
N[C@@H](CSCCCO)C(=O)O [FUDOSTEINE]	> 46
COC1C(OC(=O)/C=C/C=C/C=C/C=C/C(=O)O)CCC2(CO2)C1C1(C)OC1CC=C(C)C (stereo not drawn) [FUMAGILLIN]	> 46

SMILES	IC50 of cell viability [µM]
Cc1nc2c([nH]1)c(=O)n(C)c(=O)n2Cc1ccco1 [FURAFYLLINE]	> 46
O=C([O-])c1cc2cc(Cc3cccnc3)ccc2o1.[Na+] [FUREGRELATE SODIUM]	> 46
C/C(=C(/CCO)SSC[C@@H]1CCCO1)N(C=O)Cc1cnc(C)nc1N [FURSULTIAMINE HYDROCHLORIDE]	> 46
Cc1nc[nH]c1CC1CCc2c(C)c3ccccc3n2C1=O (stereo not drawn) [Fabesetron]	> 46
CC(C)\C1=C(/CN(C)[C@@H](C)CC2=CC=CC=C2)N(C)N(C3=CC=CC=C3)C1=O [Famprofazone]	> 46
c1ccc(CCNc2nc(-c3ccccc3)cs2)cc1 [Fanetizole]	> 46
C[C@@H](O)[C@@H]1C(=O)N2C(C(=O)O)=C([C@H]3CCCO3)SC12 (stereo partly drawn) [Faropenem]	> 46
O=[S+]([O-])(c1cccc2cnccc12)N1CCCNCC1 [Fasudil hydrochloride]	> 46
Cc1nc(-c2ccc(OCC(C)C)c(C#N)c2)sc1C(=O)O [Febuxostat]	> 46
O=C(O)Cc1ccc(-c2ccccc2)cc1 [Felbinac]	> 46
CCOC(=O)\C1=C(/C)N\C(=C(/C1C2=CC=CC(=C2Cl)Cl)C(=O)OC)C (stereo not drawn) [Felodipine]	> 46
CN(C)c1ccc(/N=N/S(=O)(=O)[O-])cc1 [Fenaminosulf]	> 46
CCOP(=O)(NC(C)C)Oc1ccc(SC)c(C)c1 (stereo not drawn) [Fenamiphos]	> 46
Nc1nnnn1-c1ccccc1 [Fenamol]	> 46
Nc1ccc(/N=N/c2ccccc2)c(N)n1 [Fenazopiridina]	> 46
O=C(O)CCC(=O)c1ccc(-c2ccccc2)cc1 [Fenbufen]	> 46
COP(=S)(OC)Oc1cc(Cl)c(Cl)cc1Cl [Fenchlorphos]	> 46
O=C(O)Cc1ccccc1Oc1ccc(Cl)cc1Cl [Fenclofenac]	> 46
O=C(O)Cc1csc(-c2ccc(Cl)cc2)n1 [Fenclozic acid]	> 46
CC(Cc1ccccc1)NCCn1cnc2c1c(=O)n(C)c(=O)n2C (stereo not drawn) [Fenethylline]	> 46
NC(=O)NNc1ccccc1 [Fenicarbazida]	> 46
CNC[C@H](O)c1cccc(O)c1 [Fenilefrina]	> 46
CN1CC(=O)\N=C1\NC(=O)NC2=CC(=CC=C2)Cl [Fenobam]	> 46
CC(C)OC(=O)C(C)(C)Oc1ccc(C(=O)c2ccc(Cl)cc2)cc1 [Fenofibrate]	> 46
O=[S+]1([O-])OC(c2ccc(O)cc2)(c2ccc(O)cc2)c2ccccc21 [Fenolipuna]	> 46
C[C@H](C(=O)[O-])c1cccc(Oc2ccccc2)c1.C[C@H](C(=O)[O-])c1cccc(Oc2ccccc2)c1.O.O.[Ca+2] [Fenoprofen calcium salt dihydrate]	> 46

SMILES	IC50 of cell viability [µM]
C[C@@H](Cc1ccc(O)cc1)NC[C@@H](O)c1cc(O)cc(O)c1 [Fenoterol hydrobromide]	> 46
c1ccc2c(c1)Nc1ccccc1S2 [Fenotiazina]	> 46
CC(COc1ccccc1)N(CCCl)Cc1ccccc1 (stereo not drawn) [Fenoxibenzamina]	> 46
COP(=S)(OC)Oc1ccc(SC)c(C)c1 [Fenthion (Baytex)]	> 46
O=C(O)Cc1sc(-c2ccccc2)nc1-c1ccc(Cl)cc1 [Fentiazac]	> 46
O=C(O)CC1=S=C(c2ccccc2)N=C1c1ccc(Cl)cc1 [Fentiazac]	> 46
Oc1ccc(Cl)cc1Sc1cc(Cl)ccc1O [Fenticlor]	> 46
C\C(C)=C\CC1C(=O)N(N(C1=O)C2=CC=CC=C2)C3=CC=CC=C3 [Feprazone]	> 46
O=C([O-])CN(CCN(CC(=O)[O-])CC(=O)[O-])CC(=O)[O-].[Fe+3].[Na+] [Feredato sodico]	> 46
CC(C)(C(=O)O)c1ccc(C(O)CCCN2CCC(C(O)(c3ccccc3)c3ccccc3)CC2)cc1 (stereo not drawn) [Fexofenadine]	> 46
COc1cccc2c1[C@@H]1CN(CCCCn3c(=O)[nH]c4c(sc5ncc(-c6ccccc6)nc54)c3=O)C[C@@H]1CO2 [Fiduxosin hydrochloride]	> 46
CC(C)(C)NC(=O)[C@@H]1CC[C@@H]2[C@@H]3CC[C@@H]4NC(=O)\C=C/[C@@]4(C)[C@H]3CC[C@@]12C [Finasteride]	> 46
COc1cc(O)cc(O)c1 [Flamenol]	> 46
O=C1/C=C(OC2=CC=CC=C12)/C3=CC=CC=C3 [Flavone]	> 46
C\C1=C(\OC2=C(C=CC=C2C(=O)OCCN3CCCCC3)C1=O)C4=CC=CC=C4 [Flavoxate hydrochloride]	> 46
CN1CCC(O)(c2ccc(F)cc2)C(C(=O)c2ccc(F)cc2)C1 (stereo not drawn) [Flazalone]	> 46
CN(C)CCC=C1C2=C(C=CC=C2)\C=C/C3=C1C=CC=C3 [Flexeril]	> 46
CO[C@@]1(NC(=O)CSC(F)F)C(=O)N2C(C(=O)O)=C(CSc3nnnn3CCO)CO[C@@H]21 [Flomoxef]	> 46
C[S+](=O)([O-])c1ccc([C@H](O)[C@H](CF)NC(=O)C(Cl)Cl)cc1 [Florfenicol]	> 46
CN1/C=C(/[S+](C)[O-])C(=O)C2=C1C=C(F)C=C2 (stereo not drawn) [Flosequinan]	> 46
CC1=C(C(=O)N[C@H]2[C@@H]3SC(C)(C)[C@H]([N@@]3C2=O)C(O)=O)C(=NO1)C4=C(Cl)C=CC=C4F [Floxacillin]	> 46
OC[C@H]1O[C@H](C[C@@H]1O)N2\C=C(F)/C(=O)NC2=O [Floxuridine]	> 46
O=C(NC(=O)c1c(F)cccc1F)Nc1ccc(Cl)c(Oc2ncc(C(F)(F)F)cc2Cl)c1 [Fluazuron]	> 46
NC/1=N/C(=O)N/C=C1F [Flucytosine]	> 46
CC(=O)[C@@]1(O)CC[C@@H]2[C@@H]3CCC/4=C/C(=O)CC[C@]4(C)[C@]3(F)[C@@H](O)C[C@]12C [Flugestone]	> 46
O=C1c2ccccc2C(=O)C1c1ccc(F)cc1 [Fluindiona]	> 46
